For assay [1], the target named is T1, Oxytocin receptor (Rattus norvegicus, UniProt P70536).
T1 sequence (P70536 whole entry): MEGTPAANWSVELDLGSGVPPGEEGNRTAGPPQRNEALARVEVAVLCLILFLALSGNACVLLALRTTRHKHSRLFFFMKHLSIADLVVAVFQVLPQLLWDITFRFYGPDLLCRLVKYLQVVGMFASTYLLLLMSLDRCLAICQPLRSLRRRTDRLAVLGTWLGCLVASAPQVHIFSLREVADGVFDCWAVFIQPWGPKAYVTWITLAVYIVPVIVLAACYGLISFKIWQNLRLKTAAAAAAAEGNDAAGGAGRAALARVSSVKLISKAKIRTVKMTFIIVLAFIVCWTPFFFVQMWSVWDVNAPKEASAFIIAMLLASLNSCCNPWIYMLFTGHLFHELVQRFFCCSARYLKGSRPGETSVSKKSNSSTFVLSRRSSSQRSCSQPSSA
Kind of assay: Antagonist activity in rat uterus by uterotonic assay. In kind it is functional, tissue-based. Conditions: read-out: pA2 (converted).

The target of assay [2] is Vasopressin V1a receptor (Rattus norvegicus) (UniProt P30560). The assay can be described thus: Antagonist activity in phenoxybenzamine-treated rat by Pressor assay. The conditions noted are these: read-out: pA2 (converted).
For assay [3] the target is unchanged. Kind of assay: Agonist activity in phenoxybenzamine-treated rat up to 0.16 mg/kg by Pressor assay.
Assay [4] deals with T2, Oxytocin receptor (Rattus norvegicus) (UniProt P70536).
T2 sequence (whole entry): T1 sequence (P70536 whole entry)
The assay can be described thus: Agonist activity in rat uterus by uterotonic assay. In kind it is functional, tissue-based.

Assay [5] addresses T3, Oxytocin receptor (Homo sapiens, UniProt P30559).
T3 sequence (P30559 whole entry): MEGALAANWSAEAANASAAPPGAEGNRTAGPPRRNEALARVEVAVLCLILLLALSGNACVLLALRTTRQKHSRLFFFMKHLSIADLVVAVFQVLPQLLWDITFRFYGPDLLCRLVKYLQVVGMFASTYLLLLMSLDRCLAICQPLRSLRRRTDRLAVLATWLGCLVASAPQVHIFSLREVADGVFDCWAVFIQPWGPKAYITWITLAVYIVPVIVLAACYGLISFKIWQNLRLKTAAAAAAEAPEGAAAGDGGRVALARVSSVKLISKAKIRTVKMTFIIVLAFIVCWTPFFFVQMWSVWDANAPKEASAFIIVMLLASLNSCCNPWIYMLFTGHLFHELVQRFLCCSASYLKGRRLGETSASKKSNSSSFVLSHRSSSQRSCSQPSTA
The assay can be described thus: Displacement of [3H]OT from human OT receptor expressed in HEK cells. It is filed as cell-based, HEK293. (Loss of bound radioactivity is the signal in a displacement assay; it reports binding, not function.)

The structures appear in SMILES notation. pIC50: −log10 of the molar value. Calls of active or inactive are those of the source. The calls are words filed in the database; no cut-off is given here.

Vasopressin V1a receptor (Rattus norvegicus), sequence (P30560 whole entry, looked up): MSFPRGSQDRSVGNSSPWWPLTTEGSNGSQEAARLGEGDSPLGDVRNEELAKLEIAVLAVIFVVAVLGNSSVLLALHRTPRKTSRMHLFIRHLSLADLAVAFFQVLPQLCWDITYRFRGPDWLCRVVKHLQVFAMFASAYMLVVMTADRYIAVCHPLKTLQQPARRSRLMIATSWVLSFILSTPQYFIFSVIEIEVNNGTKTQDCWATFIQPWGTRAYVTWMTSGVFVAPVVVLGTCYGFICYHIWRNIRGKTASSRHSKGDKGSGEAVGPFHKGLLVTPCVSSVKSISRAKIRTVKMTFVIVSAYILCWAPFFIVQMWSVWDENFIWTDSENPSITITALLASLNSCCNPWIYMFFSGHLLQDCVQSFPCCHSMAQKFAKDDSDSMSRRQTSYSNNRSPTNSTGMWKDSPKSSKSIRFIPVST

For the compound `CCc1ccc(C[C@H]2NC(=O)CCSSC[C@@H](C(=O)NC(C)(C)C(=O)N[C@@H](CC(C)C)C(=O)NCC(N)=O)NC(=O)[C@H](CC(N)=O)NC(=O)[C@H](CCC(N)=O)NC(=O)[C@H]([C@@H](C)CC)NC2=O)cc1`, the Kb in assay [1] was 5.01 nM; in assay [2] it was 316 nM. Besides, the result in assay [3] was inactive. The Activity in assay [4] is 0 IU/mg.
As to `CCOc1ccc(CC2NC(=O)CCSSC[C@@H](C(=O)N3Cc4ccccc4C[C@H]3C(=O)N[C@@H](CC(C)C)C(=O)NCC(N)=O)NC(=O)[C@H](CC(N)=O)NC(=O)[C@H](CCC(N)=O)NC(=O)[C@H]([C@@H](C)CC)NC2=O)cc1` (stereo in doubt), the values for the Kb in assay [1] and in assay [2] were 15.8 nM and > 1000 nM, respectively. This compound also showed a pIC50 in assay [5] of 6.75. For the same compound, the result in assay [3] was inactive. The same compound yielded an Activity in assay [4] of 0 IU/mg.
In the case of `CC[C@H](C)[C@@H]1NC(=O)[C@H](Cc2ccc(O)cc2)NC(=O)[C@@H](N)CSSC[C@@H](C(=O)N2Cc3ccccc3C[C@H]2C(=O)N[C@@H](CC(C)C)C(=O)NCC(N)=O)NC(=O)[C@H](CC(N)=O)NC(=O)[C@H](CCC(N)=O)NC1=O`, the Kb in assay [1] was 2510 nM; in assay [2], > 1000 nM. In assay [5], this compound showed a negative-log IC50 (pIC50) of 6.89. Besides, in assay [3], the outcome was inactive. Moreover, the Activity in assay [4] stood at 2 IU/mg.
As to `CCc1ccc(C[C@H]2NC(=O)CCSSC[C@@H](C(=O)N3CCC[C@H]3C(=O)N[C@@H](CC(C)C)C(=O)NCC(N)=O)NC(=O)[C@H](CC(N)=O)NC(=O)[C@H](CCC(N)=O)NC(=O)[C@H]([C@@H](C)CC)NC2=O)cc1`, in assay [2], the Kb was 151 nM.
Regarding `CC[C@H](C)[C@@H]1NC(=O)[C@H](Cc2ccc(O)cc2)NC(=O)[C@@H](N)CSSC[C@@H](C(=O)N2Cc3ccccc3C[C@@H]2C(=O)N[C@@H](CC(C)C)C(=O)NCC(N)=O)NC(=O)[C@H](CC(N)=O)NC(=O)[C@H](CCC(N)=O)NC1=O`, the Kb in assay [1] is 100 nM; in assay [2] it was > 1000 nM. The compound also had a pIC50 in assay [5] of 6.14. Also, the result in assay [3] was inactive. The compound further yielded an Activity in assay [4] of 0 IU/mg.
`CCOc1ccc(CC2NC(=O)CCSSC[C@@H](C(=O)N3Cc4ccccc4C[C@@H]3C(=O)N[C@@H](CC(C)C)C(=O)NCC(N)=O)NC(=O)[C@H](CC(N)=O)NC(=O)[C@H](CCC(N)=O)NC(=O)[C@H]([C@@H](C)CC)NC2=O)cc1` (stereo in doubt): the Kb in assay [1] is 6.31 nM; in assay [2] it was > 1000 nM. The pIC50 in assay [5] was 7.29. The outcome in assay [3] was inactive. In assay [4], this compound displayed an Activity of 0 IU/mg.
As to `CC[C@H](C)[C@@H]1NC(=O)[C@H](Cc2ccc(O)cc2)NC(=O)CCSSC[C@@H](C(=O)N2Cc3ccccc3C[C@H]2C(=O)N[C@@H](CC(C)C)C(=O)NCC(N)=O)NC(=O)[C@H](CC(N)=O)NC(=O)[C@H](CCC(N)=O)NC1=O`, the Kb in assay [1] was 35.5 nM; in assay [2], > 1000 nM. Besides, the pIC50 in assay [5] is 6.99. Also, in assay [3], the outcome was inactive. The compound also yielded an Activity in assay [4] of 3.5 IU/mg.
For the compound `CCOc1ccc(CC2NC(=O)CCSSC[C@@H](C(=O)N3CCCC[C@H]3C(=O)N[C@@H](CC(C)C)C(=O)NCC(N)=O)NC(=O)[C@H](CC(N)=O)NC(=O)[C@H](CCC(N)=O)NC(=O)[C@H]([C@@H](C)CC)NC2=O)cc1` (stereo in doubt), in assay [1], the Kb is 12.6 nM. Also, in assay [5], the pIC50 is 7.40. The outcome in assay [3] was inactive. In addition, the Activity in assay [4] amounted to 0 IU/mg.

The term pIC50 denotes −log10 of the IC50, conventionally taken in molar units.

Values taken from ChEMBL document CHEMBL1147207 (Eur J Med Chem, 2007).
